The text below walks through data of US11111245B2, “Derivatives of N-cycloalkyl/heterocycloalkyl-4-(imidazo[1,2-a]pyridine)pyrimidin-2-amine as therapeutic agents” (Aucentra Therapeutics Pty Ltd, priority 2017, dated 2021).

In assay [1] the target is CDK9/T1 (Homo sapiens, UniProt P50750). In words: ADP Glo Kinase assay CDK9/T1. Type of assay: biochemical. The settings on record: CDK9T1; read-out: CDK inhibition, Ki (μM) CDK9T1. The method, then:
(§1) Eurofins Pharma Discovery or Reaction Biology Corporation Kinase Profiler services were used to measure inhibition of CDKs and other kinases by radiometric assay. Inhibition of CDK4/D1, CDK6/D3 and CDK9/T1 were also determined in-house using ADP Glo Kinase assays (Promega Corporation, Madison, USA). Briefly, the kinase reaction for CDK4/D1 and CDK6/D3 was performed with kinase reaction buffer ([…] Tris base pH 7.5, 20 mM MgCl2, 0.4 mM DTT), 0.1 mg/ml BSA and RB-CTF substrate (retinoblastoma protein 1 C-terminal fraction). For CDK9/CyclinT1, the kinase reaction was performed with standard assay buffer and Kinase Dilution Buffer and RBER-IRStide substrate. Serial dilutions of 1:3 were prepared for test compounds for 10 concentrations (from 10 μM to 0.5 nM). The kinase reactions were started by addition of ATP, incubated for 40 min at 37° C. and then stopped by adding 10 μL of ADP Glo reagent. After incubation at room temperature in the dark for 40 min, 20 μL of kinase detection reagent was added per well and incubated for 40 min. Luminescence was measured using an EnVision Multilabel plate reader (PerkinElmer, Buckinghamshire, UK). Positive and negative controls were performed in the presence and absence of CDK kinases, respectively. Half-maximal inhibition (IC50) values were calculated using a 4-parameter logistic non-linear regression model with Graphpad prism (Version 6.0). Apparent inhibition constants (Ki) values were calculated from Km (ATP) and IC50 values for the respective kinases.

The target of assay [2] is T1, CDKs and other kinases (Homo sapiens, UniProt P06493).
T1 construct: other: CDK1B; residual activity (%) at 10 μM CDK1B; compound at 10 μM
T1 sequence (P06493 whole entry): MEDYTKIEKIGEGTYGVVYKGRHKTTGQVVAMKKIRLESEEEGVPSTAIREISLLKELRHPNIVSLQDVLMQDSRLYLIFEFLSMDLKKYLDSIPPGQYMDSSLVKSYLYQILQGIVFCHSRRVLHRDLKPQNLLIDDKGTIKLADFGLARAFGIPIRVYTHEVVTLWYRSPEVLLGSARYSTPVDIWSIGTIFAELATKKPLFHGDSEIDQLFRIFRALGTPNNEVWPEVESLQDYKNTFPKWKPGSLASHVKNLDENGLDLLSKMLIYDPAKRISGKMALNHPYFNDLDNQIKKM
In words: Radiometric kinase assay (Eurofins Pharma Discovery or Reaction Biology Corporation Kinase Profiler). The assay is classed as biochemical. To be noted: CDK1B; for remaining activity at 10 µM: compound at 10 μM, read-out: residual activity (%) at 10 μM CDK1B. Here is the method: as §1

For assay [3], the target named is T2, CDKs and other kinases (Homo sapiens, UniProt P24941).
T2 construct: other: CDK2A; residual activity (%) at 10 μM CDK2A; compound at 10 μM
The assay is described as above. Type of assay: biochemical. The settings on record: CDK2A; for remaining activity at 10 µM: compound at 10 μM, read-out: residual activity (%) at 10 μM CDK2A; for Ki: read-out: CDK inhibition, Ki (μM) CDK2A. Here is the method: as §1

Assay [4] deals with T3, CDKs and other kinases (Homo sapiens, UniProt P50613).
T3 construct: other: CDK7H; residual activity (%) at 10 μM CDK7H; compound at 10 μM
T3 sequence (P50613 whole entry): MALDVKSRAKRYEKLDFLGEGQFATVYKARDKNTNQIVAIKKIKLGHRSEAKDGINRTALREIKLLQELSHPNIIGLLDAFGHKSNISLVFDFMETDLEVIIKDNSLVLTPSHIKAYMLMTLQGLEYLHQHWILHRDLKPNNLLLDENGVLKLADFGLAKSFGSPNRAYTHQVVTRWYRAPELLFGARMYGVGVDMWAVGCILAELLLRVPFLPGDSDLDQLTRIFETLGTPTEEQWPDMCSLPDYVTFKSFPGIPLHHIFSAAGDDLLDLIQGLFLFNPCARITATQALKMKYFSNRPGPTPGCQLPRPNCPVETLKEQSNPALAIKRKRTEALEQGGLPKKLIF
The assay is described as above. Type of assay: biochemical. To be noted: CDK7H; for remaining activity at 10 µM: compound at 10 μM, read-out: residual activity (%) at 10 μM CDK7H; for Ki: read-out: CDK inhibition, Ki (μM) CDK7H. Here is the method: as §1

The subject of assay [5] is leukemia cell lines. In words: Resazurin cell viability assay on leukemia cell lines (72 h growth inhibition, GI50). Type of assay: cell-based. The settings on record: Homo sapiens, MV4-11 cells. The method, then: Compounds from Example 1 were subjected to a standard MTT (3-(4,5-dimethylthiazol-2-yl)-2,5-diphenyltetrazolium bromide) and resazurin assays on solid tumour cell lines and leukemia cell lines, respectively, as previously reported (Wang S et al., J Med Chem 47:1662-1675, 2004 and Diab S. et al. CheMedChem 9:962-972, 2014). Compound concentrations required to inhibit 50% of cell growth (GI50) were calculated using non-linear regression analysis.

Assay [6] deals with CDK4/D1 (Homo sapiens, UniProt P11802). In words: ADP Glo Kinase assay CDK4/D1. To be noted: CDK4D1; for remaining activity at 10 µM: compound at 10 μM, read-out: residual activity (%) at 10 μM CDK4D1. The assay is classed as biochemical. Here is the method: as §1
CDK4/D1, sequence (P11802 whole entry): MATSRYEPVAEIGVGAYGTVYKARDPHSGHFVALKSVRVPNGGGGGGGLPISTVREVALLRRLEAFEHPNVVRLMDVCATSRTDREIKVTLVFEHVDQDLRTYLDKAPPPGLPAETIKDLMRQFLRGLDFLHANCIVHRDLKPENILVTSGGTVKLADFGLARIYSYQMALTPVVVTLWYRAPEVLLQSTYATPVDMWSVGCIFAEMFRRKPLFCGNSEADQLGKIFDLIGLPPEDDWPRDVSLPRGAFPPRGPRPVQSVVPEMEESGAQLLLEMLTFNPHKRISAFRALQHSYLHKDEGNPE
CDK4/D1, sequence (P24385 whole entry partner): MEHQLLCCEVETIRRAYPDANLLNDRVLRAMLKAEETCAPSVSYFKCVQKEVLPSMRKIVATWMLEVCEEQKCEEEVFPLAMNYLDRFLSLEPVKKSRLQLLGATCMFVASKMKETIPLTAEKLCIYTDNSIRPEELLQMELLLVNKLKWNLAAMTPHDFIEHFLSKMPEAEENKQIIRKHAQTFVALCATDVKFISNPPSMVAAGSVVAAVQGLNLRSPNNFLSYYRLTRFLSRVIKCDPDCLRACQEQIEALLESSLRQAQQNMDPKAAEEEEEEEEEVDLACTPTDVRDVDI

The structures appear in SMILES notation.

CDK9/T1, sequence (P50750 whole entry): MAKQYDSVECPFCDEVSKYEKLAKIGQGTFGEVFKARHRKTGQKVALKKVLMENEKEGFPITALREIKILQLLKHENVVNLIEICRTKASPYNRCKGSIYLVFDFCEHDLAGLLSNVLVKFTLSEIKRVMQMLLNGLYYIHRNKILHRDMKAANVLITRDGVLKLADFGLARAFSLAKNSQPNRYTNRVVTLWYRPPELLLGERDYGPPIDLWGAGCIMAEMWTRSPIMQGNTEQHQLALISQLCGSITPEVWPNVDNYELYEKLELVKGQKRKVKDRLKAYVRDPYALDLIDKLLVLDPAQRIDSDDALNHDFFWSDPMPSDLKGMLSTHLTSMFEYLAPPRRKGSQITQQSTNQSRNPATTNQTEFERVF
CDK9/T1, sequence (O60563 whole entry partner): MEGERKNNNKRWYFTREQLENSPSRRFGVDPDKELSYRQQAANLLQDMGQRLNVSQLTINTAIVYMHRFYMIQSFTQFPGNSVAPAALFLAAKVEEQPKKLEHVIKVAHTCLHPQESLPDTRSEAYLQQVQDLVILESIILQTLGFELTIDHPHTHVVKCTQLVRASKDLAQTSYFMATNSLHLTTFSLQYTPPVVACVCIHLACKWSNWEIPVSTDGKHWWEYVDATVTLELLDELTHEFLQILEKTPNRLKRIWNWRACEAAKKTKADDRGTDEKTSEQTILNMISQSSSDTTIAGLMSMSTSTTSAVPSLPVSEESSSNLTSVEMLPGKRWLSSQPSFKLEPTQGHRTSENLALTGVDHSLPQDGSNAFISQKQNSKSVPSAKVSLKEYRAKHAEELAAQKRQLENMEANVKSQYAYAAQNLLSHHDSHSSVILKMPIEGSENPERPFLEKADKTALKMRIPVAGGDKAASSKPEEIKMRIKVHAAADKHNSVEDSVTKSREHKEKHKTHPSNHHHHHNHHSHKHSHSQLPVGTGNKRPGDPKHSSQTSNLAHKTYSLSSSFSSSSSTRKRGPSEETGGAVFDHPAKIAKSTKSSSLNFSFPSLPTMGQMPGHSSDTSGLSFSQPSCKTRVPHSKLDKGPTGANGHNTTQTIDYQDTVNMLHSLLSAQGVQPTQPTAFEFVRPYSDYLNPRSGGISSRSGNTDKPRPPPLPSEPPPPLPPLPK

In the case of `Cc1cnc(NC2CCC(F)(F)CC2)nc1-c1cnc2ccc(-c3ccccc3)cn12` [Compound 155, N-(4,4-Difluorocyclohexyl)-5-methyl-4-(6-phenylimidazo [1,2-a]pyridin-3-yl)pyrimidin-2-amine], the Ki in assay [1] is > 5 µM. Besides, the remaining activity at 10 µM in assay [2] was 100%; in assay [3] it was 100%; in assay [4], 99%; in assay [6], 96%. The same molecule displayed a GI50 in assay [5] of 7 ± 2.03 µM.
For `Cc1cnc(N[C@H]2CC[C@H](N3CCCC3)CC2)nc1-c1cnc2ccc(Nc3cncnc3)cn12` [Compound 142, 3-(5-Methyl-2-(((1r,4r)-4-(pyrrolidin-1-yl)cyclohexyl)amino)pyrimidin-4-yl)-N-(pyrimidin-5-yl)imidazo [1,2-a]pyridin-6-amine], in assay [1], the inhibition constant Ki stood at 0.025 µM. For the same molecule, the remaining activity at 10 µM in assay [2] turned out to be 23%; in assay [3], 15%; in assay [4] it was 39%; in assay [6] it was 8%. In addition, halving of growth in assay [5] (GI50) required 0.064 ± 0.017 µM.
Consider `Cc1cnc(N[C@H]2CC[C@H](N(CC(N)=O)CC(N)=O)CC2)nc1-c1cnc2ccc(Nc3cncnc3)cn12` [Compound 154, 2,2′-(((1r,4r)-4-((5-Methyl-4-(6-(pyrimidin-5-ylamino)imidazo[1,2-a]pyridin-3-yl)pyrimidin-2-yl)amino)cyclohexyl)azanediyl)diacetamide], for which, in assay [1], the Ki is 0.022 µM. Further, the remaining activity at 10 µM in assay [2] was determined as 14%; in assay [3] it was 7%; in assay [4], 37%; in assay [6] it was 3%. In assay [5], the GI50 is > 10 µM.
`CN1CCC(Nc2ncc(F)c(-c3cnc4ccccn34)n2)CC1` [Compound 19, 5-Fluoro-4-(imidazo[1,2-a]pyridin-3-yl)-N-(1-methylpiperidin-4-yl)pyrimidin-2-amine]: the Ki was determined as 0.078 µM in assay [1]; 0.795 µM in assay [2] (read-out: CDK inhibition, Ki (μM) CDK1B); 0.527 µM in assay [3]; 0.27 µM in assay [4]; 0.004 µM in assay [6] (read-out: CDK inhibition, Ki (μM) CDK4D1). The molecule further showed a GI50 in assay [5] of 0.084 ± 0.008 µM.
Consider `CC(C)(C)OC(=O)N1CCC(Nc2ncc(F)c(-c3cnc4ccccn34)n2)CC1` [Compound 20, tert-Butyl 4-((5-fluoro-4-(imidazo[1,2-a]pyridin-3-yl)pyrimidin-2-yl)amino)piperidine-1-carboxylate], for which the inhibition constant Ki in assay [1] was determined as 0.829 µM; in assay [4], 1.75 µM. In addition, the remaining activity at 10 µM in assay [2] stood at 56%; in assay [3], 54%; in assay [6], 29%. The GI50 in assay [5] is 0.092 ± 0.01 µM.
For `Cc1cnc(N[C@H]2CC[C@H](NS(C)(=O)=O)CC2)nc1-c1cnc2ccc(Nc3cncnc3)cn12` [Compound 126, N-((1r,4r)-4-((5-Methyl-4-(6-(pyrimidin-5-ylamino)imidazo[1,2-a]pyridin-3-yl)pyrimidin-2-yl)amino)cyclohexyl)methanesulfonamide], the Ki in assay [1] came to 0.111 µM; in assay [3] it was 0.089 µM. In addition, the results for the remaining activity at 10 µM in assay [2], in assay [4] and in assay [6] were 2%, 94% and 14%, respectively. In addition, the GI50 in assay [5] was > 5 µM.
Turning to `Fc1cnc(N[C@H]2CC[C@H](N3CCCC3)CC2)nc1-c1cnc2ccc(-c3ccccc3)cn12` [Compound 137, 5-Fluoro-4-(6-phenylimidazo[1,2-a]pyridin-3-yl)-N-((1r,4r)-4-(pyrrolidin-1-yl)cyclohexyl)pyrimidin-2-amine], the Ki in assay [1] is 0.003 µM; in assay [4], 0.04 µM. Moreover, the values for the remaining activity at 10 µM in assay [2], in assay [3] and in assay [6] were 3%, 0% and 7%, respectively. The GI50 in assay [5] was < 0.01 µM.
Consider `Cc1cnc(N[C@H]2CC[C@H](N3CCC3)CC2)nc1-c1cnc2ccc(-c3ccccc3)cn12` [Compound 135, N-((1r,4r)-4-(Azetidin-1-yl)cyclohexyl)-5-methyl-4-(6-phenylimidazo[1,2-a]pyridin-3-yl)pyrimidin-2-amine], for which the Ki in assay [1] turned out to be 1.14 µM. In addition, the remaining activity at 10 µM in assay [2] is 61%; in assay [3] it was 57%; in assay [4] it was 13%; in assay [6] it was 28%. This molecule also yielded a GI50 in assay [5] of 0.564 ± 0.047 µM.
Regarding `Cc1cnc(N[C@H]2CC[C@H](C(=O)O)CC2)nc1-c1cnc2ccc(Nc3cncnc3)cn12` [Compound 158, (1r,4r)-4-((5-Methyl-4-(6-(pyrimidin-5-ylamino)imidazo [1,2-a]pyridin-3-yl)pyrimidin-2-yl)amino)cyclohexane-1-carboxylic acid], in assay [1], the Ki is 0.185 µM. Further, the remaining activity at 10 µM in assay [2] was 94%; in assay [3], 85%; in assay [4], 98%; in assay [6], 92%. Besides, in assay [5], the GI50 is > 10 µM.
`Cc1cnc(N[C@H]2CC[C@H](N3CCCC3)CC2)nc1-c1cnc2ccc(-c3ccccc3)cn12` [Compound 140, 5-Methyl-4-(6-phenylimidazo[1,2-a]pyridin-3-yl)-N-((1r,4r)-4-(pyrrolidin-1-yl)cyclohexyl)pyrimidin-2-amine]: the figures for the inhibitory constant (Ki) in assay [1] and in assay [4] were 0.53 µM and 0.597 µM, respectively. The figures for the remaining activity at 10 µM in assay [2], in assay [3] and in assay [6] were 39%, 61% and 65%, respectively. Besides, the GI50 in assay [5] was found to be 0.242 ± 0.132 µM.
As for `Cc1cnc(N[C@H]2CC[C@H](N)CC2)nc1-c1cnc2cc(C(F)(F)F)c(-c3ccccc3)cn12` [Compound 150, (1r,4r)-N1-(5-Methyl-4-(6-phenyl-7-(trifluoromethyl)imidazo[1,2-a]pyridin-3-yl)pyrimidin-2-yl)cyclohexane-1,4-diamine], the Ki in assay [1] amounted to 0.149 µM; in assay [4], 0.372 µM. Besides, the remaining activity at 10 µM in assay [2] was 45%; in assay [3], 11%; in assay [6], 21%. Moreover, the GI50 in assay [5] turned out to be 0.42 ± 0.02 µM.
Consider `CCN[C@H]1CC[C@@H](Nc2ncc(C)c(-c3cnc4ccc(-c5ccccc5)cn34)n2)CC1` [Compound 132, (1s,4s)-N^1-ethyl-N^4-(5-Methyl-4-(6-phenylimidazo[1,2-a]pyridin-3-yl)pyrimidin-2-yl)cyclohexane-1,4-diamine], for which, in assay [1], the Ki is 1.12 µM. In addition, the remaining activity at 10 µM in assay [2] stood at 25%; in assay [3], 23%; in assay [4], 40%; in assay [6], 16%. Moreover, in assay [5], the GI50 worked out at 0.012 ± 0.008 µM.
Take `COC(=O)[C@H]1CC[C@H](Nc2ncc(C)c(-c3cnc4ccc(Nc5cncnc5)cn34)n2)CC1` [Compound 157, Methyl (1r,4r)-4-((5-methyl-4-(6-(pyrimidin-5-ylamino)imidazo[1,2-a]pyridin-3-yl)pyrimidin-2-yl)amino) cyclohexane-1-carboxylate]: the Ki in assay [1] was determined as 0.527 µM. For the same molecule, the remaining activity at 10 µM amounted to 69% in assay [2], 38% in assay [3], 90% in assay [4] and 32% in assay [6]. Also, in assay [5], the concentration for 50% growth inhibition (GI50) was 2.4 ± 0.09 µM.
With `CN1CCC(Nc2ncc(F)c(-c3cnc4ccc(Nc5cncnc5)cn34)n2)CC1` [Compound 149, 3-(5-Fluoro-2-((1-methylpiperidin-4-yl)amino)pyrimidin-4-yl)-N-(pyrimidin-5-yl)imidazo[1,2-a]pyridin-6-amine], the inhibitory constant (Ki) amounted to 0.178 µM in assay [1] and 0.313 µM in assay [4]. Also, the figures for the remaining activity at 10 µM in assay [2], in assay [3] and in assay [6] were 9%, 20% and 3%, respectively. This molecule yielded a GI50 in assay [5] of 0.145 ± 0.001 µM.
